From patent publication US20190018003A1, “TUMOR DISCRIMINATION METHOD, DIAGNOSTIC AGENT FOR TUMOR, AND SENSITIZER FOR TUMOR DIAGNOSIS” (TOTO LTD., priority 2017, published 2019)

Tested on: T24 urinary bladder cancer cells
Assay: Fluorescence enhancement in T24 cells by separate administration of hypericin and particles
Type: cell-based, human
Conditions: Example 9, fluorescent dye = hypericin 1 μmol/l 1 h, then particles 0.001 w/v % 2 h, immediately after observation light irradiation
Procedure: A solution (100 mmol/l) of hypericin (FUJIFILM Wako Pure Chemical Corporation) in dimethyl sulfoxide (FUJIFILM Wako Pure Chemical Corporation) as a solvent was mixed into an MEM medium (MEM, GlutaMAX™ supplement (Thermo Fisher Scientific)) to form a 1 μmol/l hypericin solution. Further, an aqueous solution of light scattering particles (2) (ii) was mixed into an MEM medium to form a 0.001 w/v % light scattering particle solution. Evaluation was performed as follows. The medium of the T24 cells on a 6-well plate, obtained in Example 3, was removed by an aspirator, and thereto was added 2 ml of MEM medium (Thermo Fisher Scientific). Once again, the MEM medium was removed by an aspirator, thereto was added 2 ml of hypericin solution, and the system was cultured under conditions of 3TC and 5 v/v % CO2 for 1 hour. Then, the hypericin solution of the cells on the 6-well plate was removed by an aspirator, to the residue was added 2 ml of the light scattering particle solution, and the system was cultured under conditions of 3TC and 5 v/v % CO2 for 2 hours. […] Detection of fluorescence was performed in the same manner as in Example 5 by using an inverted fluorescence microscope and, from the images acquired, fluorescence intensities were obtained and relative fluorescence intensities were calculated.

How did the Relative fluorescence intensity turn out when Cc1cc(O)c2c(=O)c3c(O)cc(O)c4c5c(O)cc(O)c6c(=O)c7c(O)cc(C)c8c1c2c(c34)c(c78)c65 [hypericin] was run?
Its Relative fluorescence intensity is 1.0.
